Measurements reported in patent US9447100B2, “Substituted pyrazolo[1,5-A] pyrimidines as calcium receptor modulating agents” (Takeda Pharmaceutical Company Limited, priority 2002, dated 2016).
Where a name gives a salt, the structure may show the parent alone.

Structure (SMILES)	melting point
O=C(O)c1cnn2c1NC(c1cccc(Cl)c1)CC2C(F)(F)F (stereo not shown) [Example 33, 5-(3-chlorophenyl)-7-(trifluoromethyl)-4,5,6,7-tetrahydropyrazolo[1,5-a]pyrimidine-3-carboxylic acid]	194 to 195 °C
CCC(CC)(NC(=O)c1cnn2c1NC(c1ccccc1)CC2(C)C)c1ccc(F)c(F)c1 (stereo not shown) [Example 589, N-(1-(3,4-difluorophenyl)-1-ethylpropyl)-7,7-dimethyl-5-phenyl-4,5,6,7-tetrahydropyrazolo[1,5-a]pyrimidine-3-carboxamide]	171 to 172 °C
CCc1ccc(C2CC(C(F)(F)F)n3ncc(C(=O)O)c3N2)cc1 (stereo not shown) [Example 28, 5-(4-ethylphenyl)-7-(trifluoromethyl)-4,5,6,7-tetrahydropyrazolo[1,5-a]pyrimidine-3-carboxylic acid]	165 to 168 °C
CCC(CC)(NC(=O)c1cnn2c1NC(c1ccccc1)CC2C(F)(F)F)c1ccc(Br)cc1 (stereo not shown) [Example 397, N-(1-(4-bromophenyl)-1-ethylpropyl)-5-phenyl-7-(trifluoromethyl)-4,5,6,7-tetrahydropyrazolo[1,5-a]pyrimidine-3-carboxamide]	180 to 181 °C
CC(C)(NC(=O)c1cnn2c1NC(c1ccccc1)CC2(C)C)c1ccc(C(F)(F)F)cc1 (stereo not shown) [Example 427, 7,7-dimethyl-N-(1-methyl-1-(4-(trifluoromethyl)phenyl)ethyl)-5-phenyl-4,5,6,7-tetrahydropyrazolo[1,5-a]pyrimidine-3-carboxamide]	182 to 183 °C
CC(NC(=O)c1cnn2c1N[C@H](c1ccccc1)C[C@@H]2C(F)(F)F)C(=O)c1ccccc1 (stereo in doubt) [Example 291, N-(1-methyl-2-oxo-2-phenylethyl)-5-phenyl-7-(trifluoromethyl)-4,5,6,7-tetrahydropyrazolo[1,5-a]pyrimidine-3-carboxamide]	178 to 179 °C
CC(C)(Cc1ccc2ccccc2c1)NC(=O)c1cnn2c1NC(c1ccccc1)CC2C(F)(F)F (stereo not shown) [Example 272, N-(1,1-dimethyl-2-(2-naphthyl)ethyl)-5-phenyl-7-(trifluoromethyl)-4,5,6,7-tetrahydropyrazolo[1,5-a]pyrimidine-3-carboxamide]	187 to 188 °C
CCC1(NC(=O)c2cnn3c2NC(c2ccccc2)CC3(C)C)CCCCC1 (stereo not shown) [Example 431, N-(1-ethylcyclohexyl)-7,7-dimethyl-5-phenyl-4,5,6,7-tetrahydropyrazolo[1,5-a]pyrimidine-3-carboxamide]	166 to 167 °C
COc1ccc(C2CC(C(F)(F)F)n3ncc(C(=O)NC45CC6CC(CC(C6)C4)C5)c3N2)cc1 (stereo not shown) [Example 202, N-(1-adamantyl)-5-(4-methoxyphenyl)-7-(trifluoromethyl)-4,5,6,7-tetrahydropyrazolo[1,5-a]pyrimidine-3-carboxamide]	241 to 243 °C
CCC1(NC(=O)c2cnn3c2NC(c2ccccc2)CC3(C)C)CCCC1 (stereo not shown) (as salt: HCl) [Example 588, N-(1-ethylcyclopentyl)-7,7-dimethyl-5-phenyl-4,5,6,7-tetrahydropyrazolo[1,5-a]pyrimidine-3-carboxamide]	140 to 142 °C
O=C(On1nnc2ccccc21)c1cnn2c1N[C@H](c1ccccc1)C[C@@H]2C(F)(F)F (stereo in doubt) [Example 372, 1-(((5-phenyl-7-(trifluoromethyl)-4,5,6,7-tetrahydropyrazolo[1,5-a]pyrimidin-3-yl)carbonyl)oxy)-1H-1,2,3-benzotriazole]	216 to 217 °C
COc1ccccc1C1CC(C(F)(F)F)n2ncc(C(=O)O)c2N1 (stereo not shown) [Example 30, 5-(2-methoxyphenyl)-7-(trifluoromethyl)-4,5,6,7-tetrahydropyrazolo[1,5-a]pyrimidine-3-carboxylic acid]	189 to 190 °C
CCOC(=O)c1cnn2c1NC(c1ccc(OC)cc1)CC2C(F)(F)F (stereo not shown) [Example 3, ethyl 5-(4-methoxyphenyl)-7-(trifluoromethyl)-4,5,6,7-tetrahydropyrazolo[1,5-a]pyrimidine-3-carboxylate]	105 to 109 °C
CCC(CC)(NC(=O)c1cnn2c1NC(c1ccccc1)CC2(C)C)c1ccc(Cl)nc1 (stereo not shown) [Example 573, N-(1-(6-chloro-3-pyridinyl)-1-ethylpropyl)-7,7-dimethyl-5-phenyl-4,5,6,7-tetrahydropyrazolo[1,5-a]pyrimidine-3-carboxamide]	223 to 224 °C

Next, values leading:

melting point	Structure (SMILES)
138 to 139 °C	CCc1ccc(C(CC)(CC)NC(=O)c2c(C)nn3c2N[C@@H](c2ccccc2F)CC3(C)C)cc1 (as salt: HCl) [Example 1089, (5R)-N-(1-ethyl-1-(4-ethylphenyl)propyl)-5-(2-fluorophenyl)-2,7,7-trimethyl-4,5,6,7-tetrahydropyrazolo[1,5-a]pyrimidine-3-carboxamide]
167 to 168 °C	CC1(C)CC(c2ccccc2Cl)Nc2c(C(=O)O)cnn21 (stereo not shown) [Example 940, 5-(2-chlorophenyl)-7,7-dimethyl-4,5,6,7-tetrahydropyrazolo[1,5-a]pyrimidine-3-carboxylic acid]
218 to 219 °C	CCC(CC)(NC(=O)c1cnn2c1NC(c1ccccc1)CC2(C)C)c1cc(-c2ccc(F)cc2)n(C)n1 (stereo not shown) [Example 726, N-(1-ethyl-1-(5-(4-fluorophenyl)-1-methyl-1H-pyrazol-3-yl)propyl)-7,7-dimethyl-5-phenyl-4,5,6,7-tetrahydropyrazolo[1,5-a]pyrimidine-3-carboxamide]
115 to 117 °C	CCC(CC)(NC(=O)c1c(OCCO)nn2c1NC(c1ccccc1)CC2(C)C)c1ccc(C)cc1 (stereo not shown) [Example 975, N-(1-ethyl-1-(4-methylphenyl)propyl)-2-(2-hydroxyethoxy)-7,7-dimethyl-5-phenyl-4,5,6,7-tetrahydropyrazolo[1,5-a]pyrimidine-3-carboxamide]
168 to 169 °C	CC(C)C(NC(=O)c1cnn2c1NC(c1ccccc1)CC2(C)C)C(C)C (stereo not shown) [Example 621, N-(1-isopropyl-2-methylpropyl)-7,7-dimethyl-5-phenyl-4,5,6,7-tetrahydropyrazolo[1,5-a]pyrimidine-3-carboxamide]
152 to 153 °C	CCCC1(NC(=O)c2cnn3c2NC(c2ccccc2)CC3(C)C)CCCCC1 (stereo not shown) [Example 619, 7,7-dimethyl-5-phenyl-N-(1-propylcyclohexyl)-4,5,6,7-tetrahydropyrazolo[1,5-a]pyrimidine-3-carboxamide]
165 to 166 °C	CCC(CC)(NC(=O)c1c(C)nn2c1NC(c1ccccc1)CC2(C)C)c1ccc(C(C)O)cc1 (stereo not shown) [Example 978, N-(1-ethyl-1-(4-(1-hydroxyethyl)phenyl)propyl)-2,7,7-trimethyl-5-phenyl-4,5,6,7-tetrahydropyrazolo[1,5-a]pyrimidine-3-carboxamide]
188 to 189 °C	CCC(CC)(NC(=O)c1cnn2c1NC(c1ccc(OC)cc1)CC2(C)C)c1ccc(C)cc1 (stereo not shown) (as salt: HCl) [Example 960, N-[1-ethyl-1-(4-methylphenyl)propyl]-5-(4-methoxyphenyl)-7,7-dimethyl-4,5,6,7-tetrahydropyrazolo[1,5-a]pyrimidine-3-carboxamide]
151 to 152 °C	CCC(CC)(NC(=O)c1cnn2c1N[C@@H](c1ccccc1)CC2(C)C)c1ccc(SC)cc1 [Example 1067, (5R)-N-(1-ethyl-1-(4-(methylthio)phenyl)propyl)-7,7-dimethyl-5-phenyl-4,5,6,7-tetrahydropyrazolo[1,5-a]pyrimidine-3-carboxamide]
153 to 155 °C	Cc1nn2c(c1C(=O)O)NC(c1cccc(F)c1)CC2(C)C (stereo not shown) [Example 945, 5-(3-fluorophenyl)-2,7,7-trimethyl-4,5,6,7-tetrahydropyrazolo[1,5-a]pyrimidine-3-carboxylic acid]
195 to 196 °C	CCC(CC)(NC(=O)c1cnn2c1NC(c1ccccc1)CC2(C)C)c1cccc(Cl)c1 (stereo not shown) [Example 614, N-(1-(3-chlorophenyl)-1-ethylpropyl)-7,7-dimethyl-5-phenyl-4,5,6,7-tetrahydropyrazolo[1,5-a]pyrimidine-3-carboxamide]
180 to 181 °C	CCC(CC)(NC(=O)c1c(C)nn2c1NC(c1ccccc1)CC2(C)C)c1ccc(Cl)cc1 (stereo not shown) (as salt: HCl) [Example 723, N-(1-(4-chlorophenyl)-1-ethylpropyl)-2,7,7-trimethyl-5-phenyl-4,5,6,7-tetrahydropyrazolo[1,5-a]pyrimidine-3-carboxamide]
148 to 149 °C	CCCC(=O)Oc1ccc(C(CC)(CC)NC(=O)c2cnn3c2NC(c2ccccc2)CC3(C)C)cc1 (stereo not shown) [Example 760, 4-(1-(((7,7-dimethyl-5-phenyl-4,5,6,7-tetrahydropyrazolo[1,5-a]pyrimidin-3-yl)carbonyl)amino)-1-ethylpropyl)phenyl butyrate]
180 to 182 °C	CCC(CC)(NC(=O)c1c(C)nn2c1NC(c1ccccc1)CC2(C)C)c1ccccc1F (stereo not shown) (as salt: HCl) [Example 843, N-(1-ethyl-1-(2-fluorophenyl)propyl)-2,7,7-trimethyl-5-phenyl-4,5,6,7-tetrahydropyrazolo[1,5-a]pyrimidine-3-carboxamide]
171 to 172 °C	CCC(CC)(NC(=O)c1cnn2c1NC(c1ccccc1)CC2(C)C)c1ccc(OC(C)=O)cc1 (stereo not shown) [Example 728, 4-(1-(((7,7-dimethyl-5-phenyl-4,5,6,7-tetrahydropyrazolo[1,5-a]pyrimidin-3-yl)carbonyl)amino)-1-ethylpropyl)phenyl acetate]
150 to 151 °C	CCC(CC)(NC(=O)c1cnn2c1NC(c1ccc(C)cc1C)CC2(C)C)c1ccc(C)cc1 (stereo not shown) (as salt: HCl) [Example 970, 5-(2,4-dimethylphenyl)-N-(1-ethyl-1-(4-methylphenyl)propyl)-7,7-dimethyl-4,5,6,7-tetrahydropyrazolo[1,5-a]pyrimidine-3-carboxamide]
195 to 196 °C	CCC(CC)(NC(=O)c1cnn2c1NC(c1ccccc1)CC2(C)C)c1cccc(Br)c1 (stereo not shown) [Example 613, N-(1-(3-bromophenyl)-1-ethylpropyl)-7,7-dimethyl-5-phenyl-4,5,6,7-tetrahydropyrazolo[1,5-a]pyrimidine-3-carboxamide]
